Results from patent US12162892B2, “CD16a binding agents and uses thereof” (KLEO PHARMACEUTICALS, INC., priority 2018, dated 2024).
“And” between values parts separate entries of the source, which are not always exact repeats. Identical values can stand only once.

What was measured:
[1] = Biotin ELISA, No Protein (Example 55); format: binding; conditions: three replicate values per compound
Method: (§1) Coat ELISA plates (Costar 3922) using Neutravidin (Thermo 31000) at 5 μg/ml (100 μl/well) for 1 hour at 37° C. Plates were washed 4 times with PBST (PBS, 0.05% Tween 20-200 μl, 1 minute/wash) then blocked using 200 μl 5% bovine serum albumin (BSA, Heat Shock, Fraction V-American Bio AB01088-00100) in PBST for 2 hours at 25° C. with moderate shaking. BSA was removed and plates were washed. Biotinylated ligands diluted in PBSTB (PBST+0.1% BSA) were then added (100 μl/well) and incubated for 1 hour at 25° C. with gentle shaking. Ligands were removed and plates were washed. Any remaining unoccupied neutravidin binding sites were blocked by adding 100 μM Biotin (Fisher BP232-1) (100 μl/well) and incubated for 1 hour at 25° C. with gentle shaking. Plates were then washed. […] Protein was removed and plates were washed. Streptavidin-HRP (Invitrogen 434323) diluted 1:5000 in PBSTB was added (100 μl/well) and incubated for 1 hour at 25° C. with gentle shaking. Wash plates. Substrate (Super Signal ELISA Pico Chemiluminescent Substrate-Thermo 37069) was added (100 μl/well) and plates were incubated for 5 minutes at 25° C. with gentle shaking. Luminescence was then measured on the Biotek Synergy H1 microplate reader.
(§2) Using similar methods as Examples 47 or 53, interactions with a number of receptors were measured. In some embodiments, “stock” is antibody only, and “control” is an antibody that went through the same procedure except using DMSO only as opposed to a compound. When contacted with targeting moieties such as antibodies in the Examples, compounds, e.g., I-95, I-96, etc. can react through their reactive groups

[2] = target: T1, CD16a158F (Homo sapiens, UniProt P08637); assay: Biotinylated Ligand ELISA Assay; format: binding; set-up: purchased Acro Biosystems CDA-H82E8; conditions: Biotinylated CD16a protein at 10 nM
T1 sequence (P08637 17-208 limits assumed): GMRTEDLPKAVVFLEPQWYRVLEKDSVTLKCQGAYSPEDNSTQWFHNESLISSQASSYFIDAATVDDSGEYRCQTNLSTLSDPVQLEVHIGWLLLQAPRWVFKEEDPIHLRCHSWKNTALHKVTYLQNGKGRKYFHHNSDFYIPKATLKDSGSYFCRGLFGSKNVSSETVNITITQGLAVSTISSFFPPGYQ
Method: as §1

[3] = target: T2, CD32b (Homo sapiens, UniProt P31994); assay: Biotin ELISA, interaction with various receptors (Example 55); format: binding; conditions: three replicate values per compound
T2 sequence (P31994 43-310): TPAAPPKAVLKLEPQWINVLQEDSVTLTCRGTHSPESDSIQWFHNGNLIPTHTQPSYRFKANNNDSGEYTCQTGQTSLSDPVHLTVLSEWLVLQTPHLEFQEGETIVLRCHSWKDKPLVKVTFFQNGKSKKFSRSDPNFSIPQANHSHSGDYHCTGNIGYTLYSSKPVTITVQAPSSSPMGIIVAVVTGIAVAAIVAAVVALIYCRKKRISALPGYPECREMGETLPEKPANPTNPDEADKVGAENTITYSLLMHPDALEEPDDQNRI
Method: as §1, §2

[4] = tested on: CD32a-R167; assay: as above; format: binding; conditions: three replicate values per compound
Method: as §1, §2

[5] = target: T3, CD32a H167 (Homo sapiens, UniProt P12318); assay: as above; format: binding; conditions: three replicate values per compound
T3 sequence (P12318 36-218 limits assumed): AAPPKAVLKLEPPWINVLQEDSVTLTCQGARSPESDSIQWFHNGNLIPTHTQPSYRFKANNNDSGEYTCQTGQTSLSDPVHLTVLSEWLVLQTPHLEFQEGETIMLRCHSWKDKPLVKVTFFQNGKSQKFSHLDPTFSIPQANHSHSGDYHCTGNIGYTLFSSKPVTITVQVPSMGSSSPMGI
Method: as §1, §2

[6] = target: T1, CD16a158F; assay: as above; format: binding; conditions: three replicate values per compound
Method: as §1, §2

[7] = target: CD3ed (Homo sapiens, UniProt P04234+P07766); assay: as above; format: binding; conditions: three replicate values per compound
CD3ed, sequence (P07766 23-126 limits assumed): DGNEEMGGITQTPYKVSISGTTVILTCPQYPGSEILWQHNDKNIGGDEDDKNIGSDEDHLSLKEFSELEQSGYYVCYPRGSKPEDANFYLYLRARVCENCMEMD
CD3ed, sequence (P04234 22-105 limits assumed): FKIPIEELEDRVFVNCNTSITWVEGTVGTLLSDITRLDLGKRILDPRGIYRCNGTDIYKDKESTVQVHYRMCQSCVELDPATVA
Method: as §1, §2

[8] = target: CD64 (Homo sapiens, UniProt P12314); assay: as above; format: binding; conditions: three replicate values per compound
CD64, sequence (P12314 16-374): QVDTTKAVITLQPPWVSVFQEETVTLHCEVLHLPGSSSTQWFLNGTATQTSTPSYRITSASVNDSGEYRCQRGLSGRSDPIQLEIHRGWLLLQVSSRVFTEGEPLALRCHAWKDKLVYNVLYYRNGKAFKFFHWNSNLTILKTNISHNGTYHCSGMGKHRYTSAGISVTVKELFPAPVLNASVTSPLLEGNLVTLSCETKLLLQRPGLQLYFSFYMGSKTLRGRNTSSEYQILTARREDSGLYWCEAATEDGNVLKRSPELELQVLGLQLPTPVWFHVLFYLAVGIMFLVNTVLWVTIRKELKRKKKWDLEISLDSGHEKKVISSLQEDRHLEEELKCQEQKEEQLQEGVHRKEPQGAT
Method: as §1, §2

[9] = target: T4, CD16a158V (Homo sapiens, UniProt P08637, F176V); assay: as above; format: binding; conditions: three replicate values per compound
T4 sequence (P08637 17-208 F176V): as the sequence (P08637 17-208 limits assumed) above, with F160V counted along it
Method: as §1, §2

[10] = target: T4, CD16a158V; assay: Biotinylated Ligand ELISA Assay; format: binding; conditions: Biotinylated CD16a protein at 10 nM
Method: as §1

[11] = tested on: primary monocytes; assay: ADCP assay using fresh primary monocytes; format: cell-based, human; conditions: beads loaded with test compound at 50 uM; 37C for 18 hrs
Method: (§3) Biotinylated fluorescent beads (Invitrogen, cat #P35372) were thoroughly mixed by vortexing for 1 min. Ten microliters of supplied bead suspension per treatment type were dispensed in Eppendorf tubes, and washed with 1 ml PBS […], then re-suspended in 500 uL of 1% BSA in PBS. Test compounds were added to bead suspensions to a final concentration of 50 uM, and biotinylated human IgG whole molecule (Rockland 009-0602) final concentration of 20 ug/mL.
(§4) Tubes were incubated at room temperature for 1 hr on a rocking platform.
(§5) Following incubation, beads were pelleted in a microcentrifuge at 12,000 g for 5 minutes at room temperature. Supernatants were carefully aspirated and beads were washed 5 times by resuspending in 1 ml of PBS 1% BSA, and centrifuging as described above. Finally, beads were resuspended in 500 ul of PBS 1% BSA and used in ADCP assay.
PBMC, freshly isolated from whole blood (Bioreclamation IVT0) using Ficoll-Paque density centrifugation were resuspended in serum-free, supplemented RPMI at 2×10^6 cells/mL.
Ten milliliters of the resulting cell suspension was seeded into 75-cm^2 tissue culture flask (Denville Scientific TC9341) and incubated 2-3 hr at 37° C. 5% CO2 to allow cell adhesion. Following incubation, media was decanted and surface of the flask was carefully washed twice, each time with 10 ml serum-free, supplemented RPMI to remove any residual non-adherent cells. To remove adherent cells, 10 mL of ice-cold 2.5 mM EDTA/PBS solution was added for 10 min on ice. Cells were transferred to a 15-ml conical tube and centrifuge 10 min at 300×g, room temperature, to remove the EDTA/PBS solution. Monocytes were then resuspended in RPMI 10% FCS at 5×10^5 cells/mL to be used in ADCP assay. Monocyte purity was assessed by staining cells with antibodies to human CD3 FITC (Biolegend 300306), CD19 PeCy7 (Biolegend 302216), CD14 BV421 (BD Biosciences, 565283), and CD16 (Biolegend 302046).
(§6) Monocytes or THP-1 cells (TIB-202 ATCC) were seeded into 96 well round bottom 96 well plates at the density of 10^5 cells per well in 200 ul, and 10 uL of fluorescent bead suspension prepared as described above was added to each well. Well contents were mixed by pipetting up and down using a multichannel pipet, and plates were incubated at 37C for 18 hrs. After incubation, well contents were transferred into flat bottom black 96 well plates (Costar #3358) and centrifuged for 2 minutes at 300 g to allow for better visualization of the cells. Images were taken using Zoe fluorescent cell imager (Biorad).

[12] = tested on: CD16a negative THP1 cells; assay: ADCP assay using THP-1 cells; format: cell-based; conditions: beads loaded with test compound at 50 uM; 37C for 18 hrs
Method: as §3, §4, §5, §6

[13] = target: T4, CD16a158V; assay: Microscale Thermophoresis; format: binding; conditions: read-out: MST-CD16a158V KD
Method: Target proteins (poly-histidine tagged, 600 nM) were fluorescently labeled combination with an equal volume of dye (200 nM, His-Tag labeling kit RED-tris-NTA NanoTemper: MO-L008) PBST. The mixture rotated in the dark for 45 min before being spun down at 12000 rpm for 15 min to remove uncomplexed material. The fluorescence of the removed supernatant was adjusted to for a test concentration of 40-80 nM (2× the final measured). Test ligands were prepared across a 12-point dilution series in a 96-well PCR plate at a volume of 20 uL at 2× the concentration desired for testing (0.2% BSA in PBST). The dilution series was then combined with an equal volume of the labeled target at 2× the concentration desired for testing. Capillaries were added to the wells of the combined target/ligand complex and measured by MST. Measurements were taken using a Nanotemper Monolith NT.115, and the data was analyzed using NanoTemper MO.Control software.

| SMILES | Biotin ELISA Results No Protein [1] | Biotinylated Ligand ELISA-CD16a158F Binding (RLU) [2] | Biotin ELISA Results CD32b [3] | Biotin ELISA Results CD32a-R167 [4] | Biotin ELISA Results CD32a-H167 [5] | Biotin ELISA Results CD16a-158F [6] | Biotin ELISA Results CD3ed [7] | Biotin ELISA Results CD64 [8] | Biotin ELISA Results CD16a-158V [9] | Biotinylated Ligand ELISA-CD16a158V Binding (RLU) [10] | ACDP (primary monocytes)-normalized phagocytosis score [11] | ACDP (CD16a negative THP1 cells)-normalized phagocytosis score [12] | Kd [13] |
| --- | --- | --- | --- | --- | --- | --- | --- | --- | --- | --- | --- | --- | --- |
| O=C(CCCC[C@@H]1SC[C@@H]2NC(=O)N[C@@H]21)NCCOCCOCCOCCOCCOCCOCCOCCOCCn1cc(-c2cccc(NC(=O)N3CCC4(CC3)NC(=O)N(Cc3ccccc3)C4=O)c2)nn1 [Compound I-16, N-{3-[1-(26-{5-[(3aS,4S,6aR)-2-oxo-hexahydro-1H-thieno[3,4-d]imidazol-4-yl]pentanamido}-3,6,9,12,15,18,21,24-octaoxahexacosan-1-yl)-1H-1,2,3-triazol-4-yl]phenyl}-3-benzyl-2,4-dioxo-1,3,8-triazaspiro[4.5]decane-8-carboxamide] | 4636 and 2801 and 5055 | D (a relative luminescence value (RLU) of 1-1,000) | 3985 and 5047 and 3438 | 8460 and 31058 and 13897 | 3600 and 3315 and 3632 | 19818 and 20544 and 2349* | 3087 and 4575 and 2480 | 40426 and 53812 and 48052 | 2543 and 5076 and 2414 | D (a relative luminescence value (RLU) of 1-1,000) | B (a normalized phagocytosis score of 1.5-2.0) | – | – |
| O=C(CCCC[C@@H]1SC[C@@H]2NC(=O)N[C@@H]21)NCCOCCOCCOCCOCCOCCOCCOCCOCCn1cc(-c2ccc(NC(=O)N3CCC4(CC3)NC(=O)N(Cc3ccccc3)C4=O)cc2)nn1 [Compound I-17, N-{4-[1-(26-{5-[(3aS,4S,6aR)-2-oxo-hexahydro-1H-thieno[3,4-d]imidazol-4-yl]pentanamido}-3,6,9,12,15,18,21,24-octaoxahexacosan-1-yl)-1H-1,2,3-triazol-4-yl]phenyl}-3-benzyl-2,4-dioxo-1,3,8-triazaspiro[4.5]decane-8-carboxamide] | −236 and −272 and 237 | D (a relative luminescence value (RLU) of 1-1,000) | 2439 and 955 and 1191 | 11182 and 5954 and 10675 | 1642 and 1978 and 2246 | 122 and 5830 and 2636 | 1412 and 1083 and 1250 | 44623 and 46028 and 52372 | 443 and 2316 and 1591 | D (a relative luminescence value (RLU) of 1-1,000) | C (a normalized phagocytosis score of 1.0-1.5) | B (a normalized phagocytosis score of 1.5-2.0) | – |
| O=C(CCCC[C@@H]1SC[C@@H]2NC(=O)N[C@@H]21)NCCOCCOCCOCCOCCOCCOCCOCCOCCn1cc(-c2ccc(NC(=O)N3CCC4(CC3)NC(=O)N(c3ccccc3)C4=O)cc2)nn1 [Compound I-18, N-{4-[1-(26-{5-[(3aS,4S,6aR)-2-oxo-hexahydro-1H-thieno[3,4-d]imidazol-4-yl]pentanamido}-3,6,9,12,15,18,21,24-octaoxahexacosan-1-yl)-1H-1,2,3-triazol-4-yl]phenyl}-2,4-dioxo-3-phenyl-1,3,8-triazaspiro[4.5]decane-8-carboxamide] | – | D (a relative luminescence value (RLU) of 1-1,000) | – | – | – | – | – | – | – | D (a relative luminescence value (RLU) of 1-1,000) | – | B (a normalized phagocytosis score of 1.5-2.0) | – |
| O=C(CCCC[C@@H]1SC[C@@H]2NC(=O)N[C@@H]21)NCCOCCOCCOCCOCCOCCOCCOCCOCCNC(=O)c1cnc(N2CCC3(CC2)NC(=O)C(Nc2ccccc2)C3=O)nc1 (stereo partly shown) [Compound I-21] | 7902 and 6992 and 7029 | A (a relative luminescence value (RLU) of >100,000) | 14249 and 14080 and 11349 | 12004 and 10942 and 9796 | 15126 and 14461 and 15658 | 6775 and 6468 and 5831 | 8285 and 6369 and 7518 | 98211 and 69008 and 131784 | 5747 and 5338 and 6303 | A (a relative luminescence value (RLU) of >100,000) | C (a normalized phagocytosis score of 1.0-1.5) | D (a normalized phagocytosis score of 0.5-1.0) | – |
| COc1ccc(OC)c(N2CC(C(=O)Nc3ccc(-c4cn(CCOCCOCCOCCOCCOCCOCCOCCOCCNC(=O)CCCC[C@@H]5SC[C@@H]6NC(=O)N[C@@H]65)nn4)cc3)CC2=O)c1 (stereo partly shown) [Compound I-39] | – | C (a relative luminescence value (RLU) of 1,000-10,000) | – | – | – | – | – | – | – | C (a relative luminescence value (RLU) of 1,000-10,000) | B (a normalized phagocytosis score of 1.5-2.0) | B (a normalized phagocytosis score of 1.5-2.0) | 100 to 500 nM |
